This is an account of results in ChEMBL document CHEMBL1158607, “2' biaryl amides as novel and subtype selective M1 agonists. Part I: Identification, synthesis, and initial SAR” (Bioorg Med Chem Lett, 2010).

Assay [1] has as its target T1, Muscarinic acetylcholine receptor M1 (Homo sapiens, UniProt P11229).
T1 sequence (P11229 whole entry): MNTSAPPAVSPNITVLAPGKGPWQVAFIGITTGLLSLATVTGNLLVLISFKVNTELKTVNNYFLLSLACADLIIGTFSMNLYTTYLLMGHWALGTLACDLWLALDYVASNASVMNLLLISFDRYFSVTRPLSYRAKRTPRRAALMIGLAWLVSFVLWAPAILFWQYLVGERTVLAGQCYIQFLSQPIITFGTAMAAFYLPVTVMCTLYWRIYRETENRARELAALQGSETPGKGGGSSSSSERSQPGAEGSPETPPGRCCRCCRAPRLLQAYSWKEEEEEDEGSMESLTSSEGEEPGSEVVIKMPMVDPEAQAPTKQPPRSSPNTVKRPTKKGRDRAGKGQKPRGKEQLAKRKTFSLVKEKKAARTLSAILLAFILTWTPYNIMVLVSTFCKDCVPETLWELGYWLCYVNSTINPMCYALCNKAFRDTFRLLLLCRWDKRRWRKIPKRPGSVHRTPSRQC
Description: Agonist activity at human muscarinic M1 receptor expressed in CHO cells assessed as effect on acetylcholine-induced intracellular calcium level by FLIPR assay. Format: functional, cell-based. Background: Calcium flux is commonly read through the fluorescence of an indicator in the cells.

Assay [2] has as its target T2, Muscarinic acetylcholine receptor M1 (Homo sapiens) (UniProt P11229).
T2 sequence (whole entry): T1 sequence (P11229 whole entry)
The experiment in a line: Intrinsic activity at human muscarinic M1 receptor expressed in CHO cells assessed as effect on acetylcholine-induced intracellular calcium level by FLIPR assay relative to acetylcholine. Format: functional, cell-based.

As a reminder, the EC50 is the midpoint of the concentration-response curve. For the molecule `N#Cc1cccc(-c2ccccc2C(=O)NCC2CCNCC2)c1`, the EC50 in assay [1] was above 10 µM.
In the case of `O=C(NCC1CCNCC1)c1ccccc1-c1cc(Cl)ccc1Cl`, the EC50 in assay [1] was 0.0398 µM. The Intrinsic activity in assay [2] was 100%.
Taken in the same sequence, the figures for `O=C(NCC1CCNCC1)c1ccccc1-c1cccc(Cl)c1Cl` were above 10 µM and 16%.
For the molecule `COc1cccc(-c2ccccc2C(=O)NCC2CCNCC2)c1`, the concentration giving a half-maximal response (EC50) in assay [1] was above 10 µM.
Still for that read-out and setting: the result for `O=C(NCC1CCNCC1)c1ccccc1-c1cccc(-c2ccccc2)c1` reads above 10 µM.
Consider `O=C(NCC1CCNCC1)c1ccccc1-c1cccc(Cl)c1F`, for which the EC50 in assay [1] was 1 µM. For the same molecule, in assay [2], the Intrinsic activity was found to be 66%.
On to `O=C(NCC1CCNCC1)c1ccccc1-c1ccc(C(F)(F)F)cc1`, for which the EC50 in assay [1] was above 10 µM.
On the same count and under the same terms, the result for `O=C(NCC1CCN2CCCC1C2)c1ccccc1-c1cccc(Cl)c1` (centres undefined) reads above 10 µM.
On the same count and under the same terms, with `O=C(NCC1CCNCC1)c1ccccc1-c1nccs1` the figure was above 10 µM; with `O=C(NCC1CCNCC1)c1ccccc1-c1ccsc1`, above 10 µM.
In the case of `O=C(NCC1CCNCC1)c1ccccc1-c1cccc(C(F)(F)F)c1`, the EC50 in assay [1] was above 10 µM.
On the same count and under the same terms, with `O=C(NCC1CCNCC1)c1ccccc1-c1ccc(F)cc1` the figure was above 10 µM; with `Cc1ccc(-c2ccccc2C(=O)NCC2CCNCC2)cc1`, above 10 µM.
The same measure, in the same setting: with `CC(=O)Nc1cccc(-c2ccccc2C(=O)NCC2CCNCC2)c1` the figure was above 10 µM.
The same measure, in the same setting: with `COc1ccccc1-c1ccccc1C(=O)NCC1CCNCC1` the figure was above 10 µM.
In the case of `O=C(NC1CCCCNC1)c1ccccc1-c1nc(Cl)cs1` (centres undefined), the EC50 in assay [1] is above 10 µM.
With `Cc1cccc(-c2ccccc2C(=O)NCC2CCNCC2)c1`, the EC50 in assay [1] was above 10 µM.
Still for that read-out and setting: the result for `O=C(NCC1CCNCC1)c1ccccc1-c1cccnc1` reads above 10 µM; that for `O=C(NCC1CCCNC1)c1ccccc1-c1nc(Cl)cs1` (centres undefined), above 10 µM.
Turning to `O=C(NCC1CCNCC1)c1ccccc1-c1ccc(Cl)c(Cl)c1`, the concentration for a half-maximal effect (EC50) in assay [1] is 0.0501 µM. Moreover, the Intrinsic activity in assay [2] was determined as 59%.
The corresponding values for `O=C(NCC1CCNCC1)c1ccccc1-c1ccc(F)c(Cl)c1` are 0.0251 µM and 76%.
Consider `O=C(NCC1CCNCC1)c1ccccc1-c1ccco1`, for which the EC50 in assay [1] is above 10 µM.
On the same count and under the same terms, the result for `CC1(C)CNCCC1CNC(=O)c1cc(Cl)ccc1-c1cccc(Cl)c1` (centres undefined) reads above 10 µM.
For `O=C(NCC12CCN(CC1)CC2)c1ccccc1-c1nc(Cl)cs1`, in assay [1], the EC50 is 0.251 µM. Besides, the Intrinsic activity in assay [2] was determined as 63%.
`O=C(NCC1CCNCC1)c1ccccc1-c1cccc2ccccc12`: the concentration for a half-maximal effect (EC50) in assay [1] was above 10 µM.
On the same count and under the same terms, the result for `O=C(NC1CCNC1)c1ccccc1-c1nc(Cl)cs1` (centres undefined) reads above 10 µM; that for `O=C(NCC1CCNCC1)c1ccccc1-c1cccs1`, above 10 µM; that for `CC(=O)c1cccc(-c2ccccc2C(=O)NCC2CCNCC2)c1`, above 10 µM.
On the same count and under the same terms, with `O=C(NCC12CCN(CC1)CC2)c1ccccc1-c1cccc(Cl)c1` the figure was above 10 µM; with `O=C(NCC1CCNCC1)c1ccccc1-c1cccc(OC(F)(F)F)c1`, above 10 µM.
As for `CC1CC(CNC(=O)c2ccccc2-c2cccc(Cl)c2)CCN1` (centres undefined), in assay [1], the EC50 is above 10 µM. For the same molecule, in assay [2], the Intrinsic activity was 28%.
As to `O=C(O)c1cccc(-c2ccccc2C(=O)NCC2CCNCC2)c1`, the 50% effective concentration (EC50) in assay [1] is above 10 µM.
On to `CN1CCC(CNC(=O)c2ccccc2-c2cccc(Cl)c2)CC1`, for which, in assay [1], the concentration for a half-maximal effect (EC50) is above 10 µM. Moreover, in assay [2], the Intrinsic activity is 16%.
Taken in the same sequence, the figures for `CC(NC(=O)c1ccccc1-c1cccc(Cl)c1)C1CCNCC1` (centres undefined) were above 10 µM and 26%.
Taken in the same sequence, the figures for `O=C(NCC1CCNCC1)c1ccccc1-c1cc(Cl)cc(Cl)c1` were above 10 µM and 24%.
Turning to `O=C(NCC12CCN(CC1)C2)c1ccccc1-c1cccc(Cl)c1`, in assay [1], the EC50 was above 10 µM.
Same read-out and setting: with `COc1ccc(-c2ccccc2C(=O)NCC2CCNCC2)cc1` the figure was above 10 µM.
Take `CN(C)c1cccc(-c2ccccc2C(=O)NCC2CCNCC2)c1`: the EC50 in assay [1] was above 10 µM.
For `O=C(NC1CCNCC1)c1ccccc1-c1nc(Cl)cs1`, the concentration for a half-maximal effect (EC50) in assay [1] is above 10 µM.
The same measure, in the same setting: with `CN(C)C(=O)c1cccc(-c2ccccc2C(=O)NCC2CCNCC2)c1` the figure was above 10 µM; with `NC(=O)c1cccc(-c2ccccc2C(=O)NCC2CCNCC2)c1`, above 10 µM.
`CN(CC1CCNCC1)C(=O)c1ccccc1-c1cccc(Cl)c1`: the EC50 in assay [1] was above 10 µM. The Intrinsic activity in assay [2] turned out to be 2%.
`Cc1c(Cl)cccc1-c1ccccc1C(=O)NCC1CCNCC1`: the EC50 in assay [1] is above 10 µM. Besides, the Intrinsic activity in assay [2] came out at 5%.
The corresponding values for `Cc1cc(Cl)cc(-c2ccccc2C(=O)NCC2CCNCC2)c1` are 1.58 µM and 52%.
As for `N[C@H]1CC[C@H](CNC(=O)c2ccccc2-c2cccc(Cl)c2)CC1`, in assay [1], the EC50 is above 10 µM.
Take `O=C(NCC1CCCN1)c1ccccc1-c1nc(Cl)cs1` (centres undefined): the EC50 in assay [1] is above 10 µM.
On the same count and under the same terms, the result for `O=C(NCC1CCNCC1)c1ccccc1-c1cccc(F)c1` reads above 10 µM; that for `O=C(NCC1CCNCC1)c1ccccc1-c1ccc(Cl)s1`, above 10 µM.
Same read-out and setting: with `O=C(NCC1CCOCC1)c1ccccc1-c1nc(Cl)cs1` the figure was above 10 µM; with `O=C(NCC1CNCCO1)c1ccccc1-c1nc(Cl)cs1` (centres undefined), above 10 µM.
Same read-out and setting: the result for `O=C(NCC1CCNCC1)c1ccccc1-c1ccccc1Cl` reads above 10 µM; that for `COCc1cccc(-c2ccccc2C(=O)NCC2CCNCC2)c1`, above 10 µM.
As for `Cc1ccc(Cl)cc1-c1ccccc1C(=O)NCC1CCNCC1`, the concentration for a half-maximal effect (EC50) in assay [1] was 0.158 µM. In assay [2], the Intrinsic activity is 86%.
As to `O=C(NC1CCCNC1)c1ccccc1-c1nc(Cl)cs1` (centres undefined), in assay [1], the EC50 was above 10 µM.
Take `CC1(CNC(=O)c2ccccc2-c2cccc(Cl)c2)CCNCC1`: the EC50 in assay [1] was above 10 µM. Besides, in assay [2], the Intrinsic activity is 45%.
The corresponding values for `O=C(NCC1CCNCC1)c1ccccc1-c1cc(F)cc(Cl)c1` are above 10 µM and 17%.
`O=C(NC[C@H]1C[C@H]2CC[C@@H](C1)N2)c1ccccc1-c1cccc(Cl)c1`: the half-maximal effective concentration (EC50) in assay [1] was above 10 µM.
Same read-out and setting: with `CS(=O)(=O)c1cccc(-c2ccccc2C(=O)NCC2CCNCC2)c1` the figure was above 10 µM; with `O=C(NCc1ccncc1)c1ccccc1-c1nc(Cl)cs1`, above 10 µM.
On the same count and under the same terms, the result for `NS(=O)(=O)c1cccc(-c2ccccc2C(=O)NCC2CCNCC2)c1` reads above 10 µM; that for `O=C(NCC1CCNCC1)c1ccccc1-c1ccncc1`, above 10 µM; that for `O=C(NCC1CCNCC1)c1ccccc1-c1ccc2ccccc2c1`, above 10 µM.
For the molecule `O=C(NCC1CCNC1)c1ccccc1-c1nc(Cl)cs1` (centres undefined), the EC50 in assay [1] is above 10 µM.
